For one experiment, the target named is human PI3Kα (Homo sapiens (Human), UniProt P42336). As to the kind of experiment: Human PI3Kα activity test (luciferin/luciferase ATP consumption, KinaseGlo). Format: biochemical. Particulars: PI3Kα (p110α/p85α), 50 μM PIP2, 2 μM ATP, 90 minutes; read-out: IC50 Human PI3Kα. On the technique in general: Kinase-Glo measures the ATP left after a reaction by luminescence.

Experiment [1] concerns Plasmodium falciparum (strain NF54). As to the kind of experiment: Antimalarial activity test: growth of Plasmodium falciparum in infected human erythrocytes, 3H-hypoxanthine incorporation. To be noted: strain NF54 sensitive to chloroquine, 72 h total incubation. Format: cell-based. How it is done:
The compounds according to the invention underwent pharmacological trials to determine their inhibitory effect on the growth of Plasmodium falciparum (strain NF54 sensitive to inhibition with chloroquine) in an in vitro test using infected human erythrocytes. The growth of the parasites is measured via the incorporation of tritiated hypoxanthine compared with the incorporation in the absence of drug. The tests are performed in 96-well microplates (Falcon™ 96-well microtiter plates, ref. No. 353072) in RPMI 1640 solutions (10.44 g/l) (without hypoxanthine) with HEPES (5.94 g/l), NaHCO3 (2.1 g/l), neomycin ([…])+AlbumaxR II (5 g/l) supplemented with human erythrocytes with a final hematocrit of 1.25% and a final parasitemia of 0.15%.
The stock solution of the compounds is prepared at 10 mg/mL in DMSO. For the test, fresh solutions at the desired concentrations are prepared in RPMI medium. For the test, 100 μl of compound are mixed with 100 μl of infected blood. For the determination of the IC50 values, the compounds are tested in twofold serial dilution.
The plates are incubated at 37° C. under a humid atmosphere with 93% N2, 4% CO2 and 3% O2. After 48 hours, 50 μl of ^3H-hypoxanthine (=0.5 μCi) in RPMI medium are added to each well and incubation is continued for a further 24 hours. Next, the plates are washed with distilled water and the cell lyzate is transferred onto fiberglass filters. The filters are dried and the radioactivity is determined by liquid scintillation. The results in cpm are converted into percentages of inhibition. The inhibitory activity is given by the concentration that inhibits 50% of the growth of the parasite relative to a control without compound.

[2] abbreviates: Plasmodium falciparum, Erythrocyte.

The structures appear in SMILES notation.

Chain of human PI3Kα (P42336 whole entry): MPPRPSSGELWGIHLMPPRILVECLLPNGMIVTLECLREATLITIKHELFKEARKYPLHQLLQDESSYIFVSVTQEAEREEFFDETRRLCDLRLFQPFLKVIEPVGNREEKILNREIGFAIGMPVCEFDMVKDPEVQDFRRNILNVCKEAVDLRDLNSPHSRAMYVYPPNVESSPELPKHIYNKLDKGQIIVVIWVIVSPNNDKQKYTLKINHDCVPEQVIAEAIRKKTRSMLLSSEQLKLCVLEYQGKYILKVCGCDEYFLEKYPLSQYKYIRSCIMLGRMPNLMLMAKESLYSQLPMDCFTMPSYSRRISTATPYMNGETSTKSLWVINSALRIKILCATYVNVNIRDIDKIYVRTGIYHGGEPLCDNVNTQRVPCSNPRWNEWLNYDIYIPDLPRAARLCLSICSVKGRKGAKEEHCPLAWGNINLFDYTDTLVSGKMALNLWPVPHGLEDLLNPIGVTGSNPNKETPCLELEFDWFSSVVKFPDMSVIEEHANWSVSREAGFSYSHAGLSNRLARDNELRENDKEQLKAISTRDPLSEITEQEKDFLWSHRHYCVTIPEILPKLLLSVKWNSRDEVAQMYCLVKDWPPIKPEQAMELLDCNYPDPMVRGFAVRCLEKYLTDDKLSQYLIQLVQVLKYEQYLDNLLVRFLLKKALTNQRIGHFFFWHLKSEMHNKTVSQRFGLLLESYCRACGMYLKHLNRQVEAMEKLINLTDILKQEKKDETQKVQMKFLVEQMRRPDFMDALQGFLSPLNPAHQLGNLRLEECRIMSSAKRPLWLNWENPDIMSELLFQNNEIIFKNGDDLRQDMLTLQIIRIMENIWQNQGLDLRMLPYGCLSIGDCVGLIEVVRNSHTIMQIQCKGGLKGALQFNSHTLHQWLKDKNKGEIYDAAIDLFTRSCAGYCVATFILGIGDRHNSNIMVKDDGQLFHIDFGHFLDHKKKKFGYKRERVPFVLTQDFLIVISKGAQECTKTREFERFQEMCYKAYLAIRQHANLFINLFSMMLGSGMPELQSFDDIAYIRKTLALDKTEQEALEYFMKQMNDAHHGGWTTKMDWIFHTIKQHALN
Chain of human PI3Kα (P27986 whole entry partner): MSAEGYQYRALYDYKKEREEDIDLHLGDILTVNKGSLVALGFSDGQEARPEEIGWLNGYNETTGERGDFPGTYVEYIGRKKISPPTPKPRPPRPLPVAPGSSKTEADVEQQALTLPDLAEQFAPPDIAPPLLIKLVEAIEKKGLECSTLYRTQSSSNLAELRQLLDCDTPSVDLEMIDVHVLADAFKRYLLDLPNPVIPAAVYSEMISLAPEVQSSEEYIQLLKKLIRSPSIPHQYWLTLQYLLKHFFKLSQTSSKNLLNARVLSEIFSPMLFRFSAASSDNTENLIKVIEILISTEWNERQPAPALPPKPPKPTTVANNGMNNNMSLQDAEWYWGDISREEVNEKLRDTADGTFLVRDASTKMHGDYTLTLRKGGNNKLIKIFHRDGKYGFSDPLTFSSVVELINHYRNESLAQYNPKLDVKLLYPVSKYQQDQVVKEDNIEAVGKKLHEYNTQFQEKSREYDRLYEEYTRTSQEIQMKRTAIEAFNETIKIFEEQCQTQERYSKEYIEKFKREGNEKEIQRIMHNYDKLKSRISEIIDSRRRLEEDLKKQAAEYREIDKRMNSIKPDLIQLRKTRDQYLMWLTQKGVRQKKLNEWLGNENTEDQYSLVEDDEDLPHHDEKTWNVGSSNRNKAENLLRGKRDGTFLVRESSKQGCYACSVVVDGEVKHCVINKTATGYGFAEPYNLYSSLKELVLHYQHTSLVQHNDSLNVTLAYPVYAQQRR
Experimental for human PI3Kα: The test uses a luciferin/luciferase system to measure the concentration of ATP and its consumption during the enzymatic reaction.
After 90 minutes, the reaction is quenched by adding 20 μl/well of KinaseGlo reagent (Promega V6713). After 10 minutes in the dark, the luminescence is read using a PHERAStar microplate reader (reading at 0.8 sec/well).

A word on the IC50: it is the concentration needed to halve the response being measured. Consider `Cc1cncc(C(=O)CN2c3nc(N4C[C@@H]5C[C@H]4CO5)cc(=O)n3C[C@@]2(C)C(F)(F)F)c1` [Compound 16, 2-methyl-1-[2-(5-methylpyrid-3-yl)-2-oxoethyl]-7-(1S,4S)-2-oxa-5-azabicyclo[2.2.1]hept-5-yl-2-((S)-trifluoromethyl)-2,3-dihydro-1H-imidazo[1,2-a]pyrimidin-5-one], for which the 50% inhibitory concentration (IC50) was greater than 7200 nM on human PI3Kα and greater than 200 nM in experiment [1] (setting [2]).
As for `Cc1ccc(C(=O)CN2c3nc(N4C[C@@H]5C[C@H]4CO5)cc(=O)n3C[C@@]2(C)C(F)(F)F)cn1` [Compound 17, 2-methyl-1-[2-(6-methylpyrid-3-yl)-2-oxoethyl]-7-(1S,4S)-2-oxa-5-azabicyclo[2.2.1]hept-5-yl-2-((S)-trifluoromethyl)-2,3-dihydro-1H-imidazo[1,2-a]pyrimidin-5-one], the IC50 was no less than 10000 nM on human PI3Kα and 160 nM in experiment [1] (setting [2]).
As to `Cc1ncccc1C(=O)CN1c2nc(N3C[C@@H]4C[C@H]3CO4)cc(=O)n2C[C@@]1(C)C(F)(F)F` [Compound 18, 2-Methyl-1-[2-(2-methylpyrid-3-yl)-2-oxoethyl]-7-(1S,4S)-2-oxa-5-azabicyclo[2.2.1]hept-5-yl-2-((S)-trifluoromethyl)-2,3-dihydro-1H-imidazo[1,2-a]pyrimidin-5-one], the IC50 was greater than 10000 nM on human PI3Kα and 93 nM in experiment [1].
For the molecule `Cc1ncccc1C(=O)CN1c2nc(N3C[C@@H]4C[C@H]3CO4)cc(=O)n2CC[C@H]1C(F)(F)F` [Compound 19, (8S)-9-[2-(2-methylpyrid-3-yl)-2-oxoethyl]-2-(1S,4S)-2-oxa-5-azabicyclo[2.2.1]hept-5-yl-8-trifluoromethyl-6,7,8,9-tetrahydropyrimido[1,2-a]pyrimidin-4-one], the IC50 on human PI3Kα was greater than 10000 nM; in experiment [1] (setting [2]) it was 24 nM.
The matching figures for `Cc1ccncc1C(=O)CN1c2nc(N3C[C@@H]4C[C@H]3CO4)cc(=O)n2CC[C@H]1C(F)(F)F` [Compound 20, (8S)-9-[2-(4-methylpyrid-3-yl)-2-oxoethyl]-2-(1S,4S)-2-oxa-5-azabicyclo[2.2.1]hept-5-yl-8-trifluoromethyl-6,7,8,9-tetrahydropyrimido[1,2-a]pyrimidin-4-one]: greater than 10000 nM and 35 nM.
`C[C@@]1(C(F)(F)F)Cn2c(nc(N3C[C@@H]4C[C@H]3CO4)cc2=O)N1CC(=O)c1cccnc1` [Compound 21, 2-methyl-7-(1S,4S)-2-oxa-5-azabicyclo[2.2.1]hept-5-yl-1-(2-oxo-2-pyrid-3-ylethyl)-2-((S)-trifluoromethyl)-2,3-dihydro-1H-imidazo[1,2-a]pyrimidin-5-one]: the IC50 on human PI3Kα was greater than 10000 nM; in experiment [1] (setting [2]), 82 nM.
In the same order, the values of `O=C(CN1c2nc(N3C[C@@H]4C[C@H]3CO4)cc(=O)n2CC[C@H]1C(F)(F)F)c1ccc(NC2CC2)nc1` [Compound 22, (8S)-9-[2-(6-Cyclopropylaminopyrid-3-yl)-2-oxoethyl]-2-(1S,4S)-2-oxa-5-azabicyclo[2.2.1]hept-5-yl-8-trifluoromethyl-6,7,8,9-tetrahydropyrimido[1,2-a]pyrimidin-4-one] are greater than 10000 nM and greater than 200 nM.
In the same order, the values of `CCNC(=O)Nc1ccc(CCN2c3nc(N4C[C@@H]5C[C@H]4CO5)cc(=O)n3CC[C@H]2C(F)(F)F)cc1` [Compound 23, 1-ethyl-3-{4-[2-((8S)-8-(1S,4S)-2-oxa-5-azabicyclo[2.2.1]hept-5-yl-6-oxo-2-trifluoromethyl-3,4-dihydro-2H,6H-pyrimido[1,2-a]pyrimidin-1-yl)ethyl]phenyl}urea] are 1040 nM and 3 nM.
Consider `CCNC(=O)Nc1ccc(CCN2c3nc(N4C[C@@H]5C[C@H]4CO5)cc(=O)n3C[C@@]2(C)C(F)(F)F)cc1` [Compound 24, 1-ethyl-3-(4-{2-[(1S,4S)-2-methyl-7-2-oxa-5-azabicyclo[2.2.1]hept-5-yl-5-oxo-2-((S)-trifluoromethyl)-2,3-dihydro-5H-imidazo[1,2-a]pyrimidin-1-yl]ethyl}phenyl)urea], for which the figures for the IC50 (on human PI3Kα; in experiment [1] (setting [2])) were 2440 nM and 8 nM, respectively.
Turning to `Cc1ncsc1CCN1c2nc(N3C[C@@H]4C[C@H]3CO4)cc(=O)n2CC[C@H]1C(F)(F)F` [Compound 25, (8S)-9-[2-(4-Methylthiazol-5-yl)ethyl]-2-(1S,4S)-2-oxa-5-azabicyclo[2.2.1]hept-5-yl-8-trifluoromethyl-6,7,8,9-tetrahydropyrimido[1,2-a]pyrimidin-4-one], the IC50 at human PI3Kα is 1000 nM; in experiment [1] (setting [2]), less than 3.4 nM.
As to `Cc1ncsc1CCN1c2nc(N3C[C@@H]4C[C@H]3CO4)cc(=O)n2C[C@@]1(C)C(F)(F)F` [Compound 26, 2-methyl-1-[2-(4-methylthiazol-5-yl)ethyl]-7-(1S,4S)-2-oxa-5-azabicyclo[2.2.1]hept-5-yl-2-((S)-trifluoromethyl)-2,3-dihydro-1H-imidazo[1,2-a]pyrimidin-5-one], the figures for the half-maximal inhibitory concentration (IC50) (on human PI3Kα; in experiment [1] (setting [2])) were 2000 nM and 10 nM, respectively.
The matching figures for `Cc1n[nH]c(C)c1CCN1c2nc(N3C[C@@H]4C[C@H]3CO4)cc(=O)n2CC[C@H]1C(F)(F)F` [Compound 27, (8S)-9-[2-(3,5-Dimethyl-1H-pyrazol-4-yl)ethyl]-2-(1S,4S)-2-oxa-5-azabicyclo[2.2.1]hept-5-yl-8-trifluoromethyl-6,7,8,9-tetrahydropyrimido[1,2-a]pyrimidin-4-one]: 1530 nM and less than 4.5 nM.
Regarding `Cc1n[nH]c(C)c1CCN1c2nc(N3C[C@@H]4C[C@H]3CO4)cc(=O)n2C[C@@]1(C)C(F)(F)F` [Compound 28, 1-[2-(3,5-Dimethyl-1H-pyrazol-4-yl)ethyl]-2-methyl-7-(1S,4S)-2-oxa-5-azabicyclo[2.2.1]hept-5-yl-2-((S)-trifluoromethyl)-2,3-dihydro-1H-imidazo[1,2-a]pyrimidin-5-one], the 50% inhibitory concentration (IC50) is 2260 nM at human PI3Kα and 9 nM in experiment [1].
In the case of `CC(C)(C)C(=O)CN1c2nc(N3C[C@@H]4C[C@H]3CO4)cc(=O)n2CC[C@H]1C(F)(F)F` [Compound 29, (8S)-9-(3,3-dimethyl-2-oxobutyl)-2-(1S,4S)-2-oxa-5-azabicyclo[2.2.1]hept-5-yl-8-trifluoromethyl-6,7,8,9-tetrahydropyrimido[1,2-a]pyrimidin-4-one], the figures for the IC50 (on human PI3Kα; in experiment [1] (setting [2])) were 7930 nM and 46 nM, respectively.
As for `CC(C)(C)C(=O)CN1c2nc(N3C[C@@H]4C[C@H]3CO4)cc(=O)n2C[C@@]1(C)C(F)(F)F` [Compound 30, 1-(3,3-Dimethyl-2-oxobutyl)-2-methyl-7-(1S,4S)-2-oxa-5-azabicyclo[2.2.1]hept-5-yl-2-((S)-trifluoromethyl)-2,3-dihydro-1H-imidazo[1,2-a]pyrimidin-5-one], the figures for the IC50 (on human PI3Kα; in experiment [1]) were greater than 10000 nM and greater than 240 nM, respectively.
`Cc1cc(C(=O)CN2c3nc(N4C[C@@H]5C[C@H]4CO5)cc(=O)n3CC[C@H]2C(F)(F)F)cnc1N` [Compound 31, (8S)-9-[2-(6-Amino-5-methylpyrid-3-yl)-2-oxoethyl]-2-(1S,4S)-2-oxa-5-azabicyclo[2.2.1]hept-5-yl-8-trifluoromethyl-6,7,8,9-tetrahydropyrimido[1,2-a]pyrimidin-4-one]: the IC50 on human PI3Kα is 6350 nM; in experiment [1] (setting [2]), 75 nM.

(Values after US9321790B2, “Pyrimidinone derivatives as antimalarial agents” (SANOFI, priority 2012, dated 2016).)
